In the supplement of paper PMC10627819:

How the values were obtained:
S. pneumoniae D39V [1] = assay: fitness (endpoint OD595 vs no drug) (fraction); higher = more growth
Method in brief: (§1)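 Background-subtracted growth curves were the basis for fitness, taken as the optical density at entry into stationary phase over the robust mean of no-drug control wells. A cap of 1 was applied. The curves came from OD595 readings every 30 min for 14 h at 37 °C, in 384-well plates seeded at OD595 0.01 with 30 µl, or 55 µl for S. pneumoniae.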

B. subtilis 168 [2] = assay: as above
Method in brief: as §1

S. pneumoniae D39V [3] = assay: Bliss interaction score (quartile over a dose matrix) (fitness difference); higher = more antagonism (negative = synergy)
Method in brief: (§2)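 Fitness is OD595 at stationary-phase entry relative to the plate's robust no-drug mean, capped at 1. Single-drug fitness was inferred from combinations. The Bliss score is observed minus product-expected fitness, summarised by quartiles over technical, biological and donor/recipient replicates.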

S. aureus Newman = assay: as above
Method in brief: as §2

B. subtilis 168 [4] = assay: as above
Method in brief: as §2

S. aureus DSM 20231 = assay: as above
Method in brief: as §2
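Throughout, for Bliss interaction score (quartile over a dose matrix): first quartile when negative (synergy) and third quartile when positive (antagonism).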

C[C@H]1COc2c(N3CCN(C)CC3)c(F)cc3c(=O)c(C(=O)O)cn1c23 [Levofloxacin] + COc1c(N2C[C@@H]3CCCN[C@@H]3C2)c(F)cc2c(=O)c(C(=O)O)cn(C3CC3)c12 [Moxifloxacin]
Conditions	fitness
B. subtilis 168 [2], first compound 0.002 µg/mL, partner 0.0312 µg/mL	0.0439
B. subtilis 168 [2], first compound 0.002 µg/mL, partner 0.0625 µg/mL	0.0254
B. subtilis 168 [2], first compound 0.002 µg/mL, partner 0.125 µg/mL	0.0489
B. subtilis 168 [2], first compound 0.0039 µg/mL, partner 0.0312 µg/mL	0.0651
B. subtilis 168 [2], first compound 0.0039 µg/mL, partner 0.0625 µg/mL	0.0551
B. subtilis 168 [2], first compound 0.0039 µg/mL, partner 0.125 µg/mL	0.0554
B. subtilis 168 [2], first compound 0.0078 µg/mL, partner 0.0312 µg/mL	0.0472
B. subtilis 168 [2], first compound 0.0078 µg/mL, partner 0.0625 µg/mL	0.0515
B. subtilis 168 [2], first compound 0.0078 µg/mL, partner 0.125 µg/mL	0.0578
B. subtilis 168 [2], first compound 0.0312 µg/mL, partner 2 µg/mL	0.0397
B. subtilis 168 [2], first compound 0.0312 µg/mL, partner 4 µg/mL	0.0257
B. subtilis 168 [2], first compound 0.0312 µg/mL, partner 8 µg/mL	0.0215
B. subtilis 168 [2], first compound 0.0625 µg/mL, partner 2 µg/mL	0.0387
B. subtilis 168 [2], first compound 0.0625 µg/mL, partner 4 µg/mL	0.0417
B. subtilis 168 [2], first compound 0.0625 µg/mL, partner 8 µg/mL	0.0241
B. subtilis 168 [2], first compound 0.125 µg/mL, partner 2 µg/mL	0.0455
B. subtilis 168 [2], first compound 0.125 µg/mL, partner 4 µg/mL	0.0375
B. subtilis 168 [2], first compound 0.125 µg/mL, partner 8 µg/mL	0.0205
S. pneumoniae D39V [1], first compound 0.1725 µg/mL, partner 0.0037 µg/mL	0.882
S. pneumoniae D39V [1], first compound 0.1725 µg/mL, partner 0.0075 µg/mL	0.848
S. pneumoniae D39V [1], first compound 0.1725 µg/mL, partner 0.015 µg/mL	0.887
S. pneumoniae D39V [1], first compound 0.2 µg/mL, partner 0.005 µg/mL	0.899
S. pneumoniae D39V [1], first compound 0.2 µg/mL, partner 0.01 µg/mL	0.943
S. pneumoniae D39V [1], first compound 0.2 µg/mL, partner 0.02 µg/mL	0.857
S. pneumoniae D39V [1], first compound 0.345 µg/mL, partner 0.0037 µg/mL	0.723
S. pneumoniae D39V [1], first compound 0.345 µg/mL, partner 0.0075 µg/mL	0.69
S. pneumoniae D39V [1], first compound 0.345 µg/mL, partner 0.015 µg/mL	0.738
S. pneumoniae D39V [1], first compound 0.4 µg/mL, partner 0.005 µg/mL	0.842
S. pneumoniae D39V [1], first compound 0.4 µg/mL, partner 0.01 µg/mL	0.85
S. pneumoniae D39V [1], first compound 0.4 µg/mL, partner 0.02 µg/mL	0.77
S. pneumoniae D39V [1], first compound 0.69 µg/mL, partner 0.0037 µg/mL	0.418
S. pneumoniae D39V [1], first compound 0.69 µg/mL, partner 0.0075 µg/mL	0.391
S. pneumoniae D39V [1], first compound 0.69 µg/mL, partner 0.015 µg/mL	0.489

B. subtilis 168 [2], first compound 0.001 µg/mL, one replicate
Conditions	fitness
partner 0.0312 µg/mL	0.575
partner 0.0625 µg/mL	0.0212
partner 0.125 µg/mL	0

Conditions	Bliss interaction score
B. subtilis 168 [4]	0.0308
S. aureus DSM 20231	-0.0852
S. aureus Newman	-0.201
S. pneumoniae D39V [3]	-0.0874

C[C@H]1COc2c(N3CCN(C)CC3)c(F)cc3c(=O)c(C(=O)O)cn1c23 [Levofloxacin] + COc1ccc(C[C@H](N)C(=O)N[C@H]2[C@@H](O)[C@H](n3cnc4c(N(C)C)ncnc43)O[C@@H]2CO)cc1 [Puromycin]
fitness
Conditions	first compound 0.0312 µg/mL	first compound 0.0625 µg/mL	first compound 0.125 µg/mL	first compound 0.1725 µg/mL	first compound 0.345 µg/mL	first compound 0.69 µg/mL
B. subtilis 168 [2], partner 0.39 µg/mL	0.0269	0.0447	0.0177	–	–	–
B. subtilis 168 [2], partner 0.78 µg/mL	0.0422	0.0467	0.0355	–	–	–
B. subtilis 168 [2], partner 1.56 µg/mL	0.0415	0.0483	0.0409	–	–	–
S. pneumoniae D39V [1], partner 1 µg/mL	–	–	–	0.981	0.919	0.689
S. pneumoniae D39V [1], partner 2 µg/mL	–	–	–	0.944	0.895	0.661
S. pneumoniae D39V [1], partner 4 µg/mL	–	–	–	0.796	0.8	0.599

fitness, one replicate
Conditions	first compound 0.001 µg/mL	first compound 0.002 µg/mL	first compound 0.0039 µg/mL	first compound 0.2 µg/mL	first compound 0.4 µg/mL	first compound 0.8 µg/mL
B. subtilis 168 [2], partner 0.39 µg/mL	0.961	0.909	0.834	–	–	–
B. subtilis 168 [2], partner 0.78 µg/mL	0.949	0.967	0.884	–	–	–
B. subtilis 168 [2], partner 1.56 µg/mL	0.934	0.909	0.868	–	–	–
S. pneumoniae D39V [1], partner 1 µg/mL	–	–	–	0.828	0.672	0.288
S. pneumoniae D39V [1], partner 2 µg/mL	–	–	–	0.854	0.741	0.309
S. pneumoniae D39V [1], partner 4 µg/mL	–	–	–	0.777	0.628	0.205

Conditions	Bliss interaction score
B. subtilis 168 [4]	-0.0129
S. aureus DSM 20231	-0.0463
S. aureus Newman	-0.0822
S. pneumoniae D39V [3]	0.0705

C[C@H]1COc2c(N3CCN(C)CC3)c(F)cc3c(=O)c(C(=O)O)cn1c23 [Levofloxacin] + C[n+]1ccc(-c2cc[n+](C)cc2)cc1 [Paraquat]
fitness
Conditions	first compound 0.0312 µg/mL	first compound 0.0625 µg/mL	first compound 0.125 µg/mL	first compound 0.1725 µg/mL	first compound 0.345 µg/mL	first compound 0.69 µg/mL
B. subtilis 168 [2], partner 1.25 µg/mL	0.0392	0.0443	0.0452	–	–	–
B. subtilis 168 [2], partner 2.5 µg/mL	0.0272	0.0296	0.0268	–	–	–
B. subtilis 168 [2], partner 5 µg/mL	0.0508	0.0462	0.0464	–	–	–
S. pneumoniae D39V [1], partner 1.5 µg/mL	–	–	–	0.977	0.91	0.602
S. pneumoniae D39V [1], partner 3 µg/mL	–	–	–	0.974	0.919	0.647
S. pneumoniae D39V [1], partner 6 µg/mL	–	–	–	0.972	0.849	0.569

fitness, one replicate
Conditions	first compound 0.001 µg/mL	first compound 0.002 µg/mL	first compound 0.0039 µg/mL	first compound 0.2 µg/mL	first compound 0.4 µg/mL	first compound 0.8 µg/mL
B. subtilis 168 [2], partner 1.25 µg/mL	0.91	0.941	0.829	–	–	–
B. subtilis 168 [2], partner 2.5 µg/mL	0.966	0.876	0.823	–	–	–
B. subtilis 168 [2], partner 5 µg/mL	0.889	0.778	0.766	–	–	–
S. pneumoniae D39V [1], partner 1.5 µg/mL	–	–	–	0.966	0.911	0.615
S. pneumoniae D39V [1], partner 3 µg/mL	–	–	–	0.983	0.939	0.684
S. pneumoniae D39V [1], partner 6 µg/mL	–	–	–	0.994	0.952	0.696

Conditions	Bliss interaction score
B. subtilis 168 [4]	-0.0255
S. aureus DSM 20231	-0.0517
S. aureus Newman	-0.0586
S. pneumoniae D39V [3]	0.0861

C[C@H]1COc2c(N3CCN(C)CC3)c(F)cc3c(=O)c(C(=O)O)cn1c23 [Levofloxacin] + Cc1cc(NS(=O)(=O)c2ccc(N)cc2)no1 [Sulfamethoxazol]
fitness
Conditions	partner 1 µg/mL	partner 2 µg/mL	partner 4 µg/mL
B. subtilis 168 [2], first compound 0.002 µg/mL	0.867	0.881	–
B. subtilis 168 [2], first compound 0.0039 µg/mL	0.831	0.841	–
B. subtilis 168 [2], first compound 0.0312 µg/mL	0.0318	0.0375	0.0268
B. subtilis 168 [2], first compound 0.0625 µg/mL	0.0358	0.0467	0.0289
B. subtilis 168 [2], first compound 0.125 µg/mL	0.0382	0.0353	0.0242
S. pneumoniae D39V [1], first compound 0.1725 µg/mL	0.935	0.972	0.967
S. pneumoniae D39V [1], first compound 0.345 µg/mL	0.824	0.827	0.833
S. pneumoniae D39V [1], first compound 0.69 µg/mL	0.455	0.461	0.498

fitness, one replicate
Conditions	partner 0.5 µg/mL	partner 1 µg/mL	partner 2 µg/mL	partner 4 µg/mL
B. subtilis 168 [2], first compound 0.001 µg/mL	–	0.98	0.98	0.929
B. subtilis 168 [2], first compound 0.002 µg/mL	0.955	–	–	0.885
B. subtilis 168 [2], first compound 0.0039 µg/mL	0.939	–	–	0.834
B. subtilis 168 [2], first compound 0.0078 µg/mL	0.862	0.782	0.788	–
S. pneumoniae D39V [1], first compound 0.2 µg/mL	–	0.955	0.902	0.841
S. pneumoniae D39V [1], first compound 0.4 µg/mL	–	0.854	0.87	0.771
S. pneumoniae D39V [1], first compound 0.8 µg/mL	–	0.373	0.495	0.487

Conditions	Bliss interaction score
B. subtilis 168 [4]	-0.0263
S. aureus DSM 20231	-0.125
S. aureus Newman	0.0779
S. pneumoniae D39V [3]	-0.0634
